The values below come from article PMC4960700, “In vivo and in vitro inhibition of rat liver glutathione transferases activity by extracts from Combretum zeyheri (Combretaceae) and Parinari curatellifolia (Chrysobalanaceae)” (BMC Complementary and Alternative Medicine, 2016).

Structures are written as SMILES. ≈ marks a conversion by molar mass, not a printed value. Where “and” joins values, the source holds several entries; their conditions need not be identical. Equal values may be shown once.

One assay concerns the target kidney GSTs. Kind of assay: In vitro GST enzyme assay (CDNB/GSH) with kidney cytosolic fractions of control rats. The format is biochemical, male Sprague–Dawley rats. To be noted: CDNB substrate. The protocol: (§1) Throughout the procedure tissue fractions were kept cold (0–4 °C) by using pre-cooled homogenization medium (50 mM Tris–HCl containing 0.154 M KCl) and keeping centrifuge rotors, tissue homogenizer, measuring cylinders, beakers and centrifuge tubes in ice. Excess blood was removed from the liver by perfusing the livers with ice cold normal saline using a Pharmacia LKB pump P-1 (Pharmacia, Uppsala, Sweden) at a flow rate of 50 ml/h through the still beating heart then gently blotting with dry tissue paper. Perfusion was performed in situ to remove blood. The livers and kidneys were removed and blotted dry. The liver or kidney samples were, weighed, wet mass recorded and livers quickly transferred to a homogenizing vessel, which was kept, on ice. Homogenizing medium 50 mM Tris–HCl pH 7.4 containing 154 mM KCl was added to each sample (5 ml/g of liver). The liver or kidney samples were cut into suitable pieces and homogenized with a motor driven Potter-Elvehjem homogenizer type R2R (Heidolph Elektro KG., Kelheim, Germany). […] The final volume was recorded and “parafilm ^TM” (Sigma-Aldrich Co., Steinheim, Germany) was added to cover. […] Protein content in the liver and kidney cytosolic fractions was determined using the Lowry method. The total GST activity in cell supernatants was measured spectrophotometrically using final concentrations of 1 mM 1-chloro-2,4-dinitrobenzene (CDNB) and 1 mM glutathione, as substrates in 0.1 M potassium phosphate buffer pH 6.5, and GST (0.125 mg/ml protein). Cytosolic glutathione transferases activities were assessed using 0.5 mg/ml and 2 mg/ml enzyme dilutions for the liver and kidney samples respectively. […] GST mediated conjugation of 1-chloro-2, 4- dinitrobenzene (CDNB) to glutathione (GSH) was measured using 96-well microtitre plates in a microplate reader (Biokinetics reader EL 340 microplate, Highland Park, 998, Winsooki, VT, USA). […] After addition of CDNB, the plate was transferred to the microplate reader. The plate was read at 5-min intervals for a total of 15 min.

The target of another assay is rat liver GSTs. The assay is described as follows: In vitro GST enzyme assay (CDNB/GSH) with liver cytosolic fractions of control rats. In kind it is biochemical, male Sprague–Dawley rats. To be noted: CDNB substrate. The protocol:
as §1

Regarding `C=C(CC)C(=O)c1ccc(OCC(=O)O)c(Cl)c1Cl` [ETA, ethacrynic acid], the IC50 against kidney GSTs (kidney cytosol from corn oil-treated control group, P. curatellifolia experiments) was 3.7 µg/mL (≈ 12.2 µM); at kidney GSTs (kidney cytosol from normal saline treated control group, P. curatellifolia experiments), 7.36 µg/mL and 7.4 µg/mL; on kidney GSTs (kidney cytosol from saline-treated control group, C. zeyheri experiments) it was 10 µg/mL (≈ 33 µM); at rat liver GSTs (liver cytosol from corn oil-treated control group, P. curatellifolia experiments), 10 µg/mL (≈ 33 µM); at rat liver GSTs (liver cytosol from normal saline treated control group, P. curatellifolia experiments), 5.8 µg/mL and 6 µg/mL; at rat liver GSTs (liver cytosol from saline-treated control group, C. zeyheri experiments) it was 5.4 µg/mL (≈ 17.8 µM).

For orientation: IC50 means the concentration that inhibits the measured activity by half.
